Among the data in patent US10081624B2, “Heterocyclic compound” (Takeda Pharmaceutical Company Limited, priority 2014, dated 2018) are inhibition values, retold here.

Each structure is given as a SMILES string.

Assay [1] addresses T1, HDAC1 enzyme (Homo sapiens, UniProt Q13547).
T1 construct: prepared by transducing full length HDAC1 and HDAC6 genes into Sf-9 insect cells; GST; purchased SignalChem; host or cells: Sf-9 insect cells
As to the kind of experiment: HDAC1 enzyme inhibitory assay (HDAC-Glo I/II Assay kit). Format: biochemical. As to conditions: 1 μM test compound; read-out: HDAC1 inhibitory rate (%) (1 μM). Put shortly:
(§1)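 Full-length GST-purified HDAC1 or HDAC6 (Sf-9 expressed) preincubated 60 min at room temperature with compound in Tris-HCl pH 7.5 buffer with glutathione and Tween-20. HDAC-Glo substrate-developer added, 20 min at room temperature, then luminescence read; inhibition relative to no-enzyme wells as 100%.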

The target in assay [2] is T2, HDAC6 enzyme (Homo sapiens, UniProt Q9UBN7).
T2 construct: prepared by transducing full length HDAC1 and HDAC6 genes into Sf-9 insect cells; GST; purchased SignalChem; host or cells: Sf-9 insect cells
T2 sequence (Q9UBN7 1-1215): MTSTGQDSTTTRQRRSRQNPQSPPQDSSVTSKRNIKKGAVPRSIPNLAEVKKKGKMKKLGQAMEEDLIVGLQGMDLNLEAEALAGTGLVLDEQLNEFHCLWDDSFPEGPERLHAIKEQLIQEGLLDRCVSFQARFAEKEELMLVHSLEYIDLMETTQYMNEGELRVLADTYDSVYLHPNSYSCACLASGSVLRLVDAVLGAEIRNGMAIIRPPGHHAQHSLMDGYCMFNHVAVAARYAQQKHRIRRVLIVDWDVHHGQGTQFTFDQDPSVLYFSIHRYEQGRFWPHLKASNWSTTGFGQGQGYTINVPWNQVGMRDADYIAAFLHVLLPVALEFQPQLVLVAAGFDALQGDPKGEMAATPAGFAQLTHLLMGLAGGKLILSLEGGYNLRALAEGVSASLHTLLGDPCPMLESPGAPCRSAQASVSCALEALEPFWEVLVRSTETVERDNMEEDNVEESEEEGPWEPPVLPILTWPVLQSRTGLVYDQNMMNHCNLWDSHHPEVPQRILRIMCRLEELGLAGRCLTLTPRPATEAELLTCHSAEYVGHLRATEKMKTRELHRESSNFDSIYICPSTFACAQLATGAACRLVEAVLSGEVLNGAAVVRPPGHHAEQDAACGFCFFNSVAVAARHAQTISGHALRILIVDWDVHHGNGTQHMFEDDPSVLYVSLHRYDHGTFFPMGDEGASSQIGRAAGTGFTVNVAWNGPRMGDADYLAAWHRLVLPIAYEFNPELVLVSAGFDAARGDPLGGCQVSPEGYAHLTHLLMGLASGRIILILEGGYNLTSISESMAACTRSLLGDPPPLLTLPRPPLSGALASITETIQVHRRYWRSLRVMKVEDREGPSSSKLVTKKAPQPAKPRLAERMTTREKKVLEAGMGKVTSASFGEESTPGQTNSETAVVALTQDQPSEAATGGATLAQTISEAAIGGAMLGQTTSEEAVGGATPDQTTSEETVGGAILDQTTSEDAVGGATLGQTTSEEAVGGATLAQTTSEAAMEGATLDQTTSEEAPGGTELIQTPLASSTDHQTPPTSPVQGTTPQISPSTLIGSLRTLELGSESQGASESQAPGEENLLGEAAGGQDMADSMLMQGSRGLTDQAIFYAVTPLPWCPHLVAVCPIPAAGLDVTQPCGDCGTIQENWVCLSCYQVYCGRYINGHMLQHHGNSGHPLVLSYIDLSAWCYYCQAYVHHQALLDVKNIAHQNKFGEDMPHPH
Description: HDAC6 enzyme inhibitory assay (HDAC-Glo I/II Assay kit). In kind it is biochemical. As to conditions: 1 μM test compound; read-out: HDAC6 inhibitory rate (%) (1 μM). In short, it runs like this: as §1

T1 sequence (Q13547 whole entry): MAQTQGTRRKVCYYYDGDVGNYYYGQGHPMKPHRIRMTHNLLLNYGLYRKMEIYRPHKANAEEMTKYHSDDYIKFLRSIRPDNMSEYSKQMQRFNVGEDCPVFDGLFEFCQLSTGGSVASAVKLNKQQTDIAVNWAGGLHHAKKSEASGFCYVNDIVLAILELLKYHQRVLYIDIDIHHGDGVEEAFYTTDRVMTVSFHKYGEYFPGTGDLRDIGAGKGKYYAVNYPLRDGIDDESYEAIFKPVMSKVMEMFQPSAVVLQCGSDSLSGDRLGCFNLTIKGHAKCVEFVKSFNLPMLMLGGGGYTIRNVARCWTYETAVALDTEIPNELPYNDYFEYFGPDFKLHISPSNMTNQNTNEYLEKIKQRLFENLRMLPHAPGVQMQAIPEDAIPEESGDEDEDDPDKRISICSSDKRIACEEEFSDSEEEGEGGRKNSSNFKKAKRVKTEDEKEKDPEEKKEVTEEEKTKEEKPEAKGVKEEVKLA

As for `O=C(NC[C@H]1COCCN1C(=O)C1CCc2ccccc2O1)c1ccc(-c2noc(C(F)(F)F)n2)cc1` (stereo partly drawn) [Example 52, N-(((3S)-4-(3,4-dihydro-2H-chromen-2-ylcarbonyl)morpholin-3-yl)methyl)-4-(5-(trifluoromethyl)-1,2,4-oxadiazol-3-yl)benzamide], the inhibition at 1 µM in assay [1] was determined as 18%; in assay [2], 97%.

On to `N#CC1(C(=O)N2CCOC[C@@H]2CNC(=O)c2ccc(-c3noc(C(F)(F)F)n3)cc2)CC1` [Example 55, N-(((3S)-4-((1-cyanocyclopropyl)carbonyl)morpholin-3-yl)methyl)-4-(5-(trifluoromethyl)-1,2,4-oxadiazol-3-yl)benzamide], for which the inhibition at 1 µM is 17% in assay [1] and 96% in assay [2].

`O=C(NC[C@H]1COCCN1C(=O)C1(c2ccccc2)CC1)c1ccc(-c2noc(C(F)(F)F)n2)cc1` [Example 56, N-(((3S)-4-((1-phenylcyclopropyl)carbonyl)morpholin-3-yl)methyl)-4-(5-(trifluoromethyl)-1,2,4-oxadiazol-3-yl)benzamide]: the results for the inhibition at 1 µM in assay [1] and in assay [2] were 16% and 97%, respectively.

As for `Cc1oncc1C(=O)N1CCOC[C@@H]1CNC(=O)c1ccc(-c2noc(C(F)(F)F)n2)cc1` [Example 59, N-(((3S)-4-((5-methyl-1,2-oxazol-4-yl)carbonyl)morpholin-3-yl)methyl)-4-(5-(trifluoromethyl)-1,2,4-oxadiazol-3-yl)benzamide], the inhibition at 1 µM in assay [1] worked out at 22%; in assay [2], 101%.

Consider `Cc1nonc1C(=O)N1CCOC[C@@H]1CNC(=O)c1ccc(-c2noc(C(F)(F)F)n2)cc1` [Example 60, N-(((3S)-4-((4-methyl-1,2,5-oxadiazol-3-yl)carbonyl)morpholin-3-yl)methyl)-4-(5-(trifluoromethyl)-1,2,4-oxadiazol-3-yl)benzamide], for which the values for the inhibition at 1 µM in assay [1] and in assay [2] were 27% and 98%, respectively.

`O=C(NC[C@H]1COCCN1C(=O)c1ccno1)c1ccc(-c2noc(C(F)(F)F)n2)cc1` [Example 61, N-(((3S)-4-(1,2-oxazol-5-ylcarbonyl)morpholin-3-yl)methyl)-4-(5-(trrfluoromethyl)-1,2,4-oxadiazol-3-yl)benzamide]: the inhibition at 1 µM in assay [1] came to 10%; in assay [2], 97%.

As to `Cc1cc(C(=O)N2CCOC[C@@H]2CNC(=O)c2ccc(-c3noc(C(F)(F)F)n3)cc2)n(C)n1` [Example 63, N-(((3S)-4-((1,3-dimethyl-1H-pyrazol-5-yl)carbonyl)morpholin-3-yl)methyl)-4-(5-(trifluoromethyl)-1,2,4-oxadiazol-3-yl)benzamide], the inhibition at 1 µM in assay [1] came to 14%; in assay [2], 97%.

Consider `Cn1nc(C(F)(F)F)cc1C(=O)N1CCOC[C@@H]1CNC(=O)c1ccc(-c2noc(C(F)(F)F)n2)cc1` [Example 64, N-(((3S)-4-((1-methyl-3-(trifluoromethyl)-1H-pyrazol-5-yl)carbonyl)morpholin-3-yl)methyl)-4-(5-(trifluoromethyl)-1,2,4-oxadiazol-3-yl)benzamide], for which the figures for the inhibition at 1 µM in assay [1] and in assay [2] were 17% and 93%, respectively.

Consider `Cc1nn(C)c(C)c1C(=O)N1CCOC[C@@H]1CNC(=O)c1ccc(-c2noc(C(F)(F)F)n2)cc1` [Example 67, 4-(5-(trifluoromethyl)-1,2,4-oxadiazol-3-yl)-N-(((3S)-4-((1,3,5-trimethyl-1H-pyrazol-4-yl)carbonyl)morpholin-3-yl)methyl)benzamide], for which the results for the inhibition at 1 µM in assay [1] and in assay [2] were 5% and 95%, respectively.

Regarding `Cc1nnsc1C(=O)N1CCOC[C@@H]1CNC(=O)c1ccc(-c2noc(C(F)(F)F)n2)cc1` [Example 68, N-(((3S)-4-((4-methyl-1,2,3-thiadiazol-5-yl)carbonyl)morpholin-3-yl)methyl)-4-(5-(trifluoromethyl)-1,2,4-oxadiazol-3-yl)benzamide], the inhibition at 1 µM in assay [1] turned out to be 32%; in assay [2], 101%.

In the case of `Cc1ncsc1C(=O)N1CCOC[C@@H]1CNC(=O)c1ccc(-c2noc(C(F)(F)F)n2)cc1` [Example 69, N-(((3S)-4-((4-methyl-1,3-thiazol-5-yl)carbonyl)morpholin-3-yl)methyl)-4-(5-(trifluoromethyl)-1,2,4-oxadiazol-3-yl)benzamide], the inhibition at 1 µM in assay [1] came to 16%; in assay [2], 100%.

Turning to `O=C(NC[C@H]1COCCN1C(=O)c1csnn1)c1ccc(-c2noc(C(F)(F)F)n2)cc1` [Example 70, N-(((3S)-4-(1,2,3-thiadiazol-4-ylcarbonyl)morpholin-3-yl)methyl)-4-(5-(trifluoromethyl)-1,2,4-oxadiazol-3-yl)benzamide], the values for the inhibition at 1 µM in assay [1] and in assay [2] were 5% and 95%, respectively.

As to `Cc1ccsc1C(=O)N1CCOC[C@@H]1CNC(=O)c1ccc(-c2noc(C(F)(F)F)n2)cc1` [Example 74, N-(((3S)-4-((3-methyl-2-thienyl)carbonyl)morpholin-3-yl)methyl)-4-(5-(trifluoromethyl)-1,2,4-oxadiazol-3-yl)benzamide], the results for the inhibition at 1 µM in assay [1] and in assay [2] were 18% and 100%, respectively.

As to `O=C(NC[C@H]1COCCN1C(=O)C1CCCC1)c1ccc(-c2noc(C(F)(F)F)n2)cc1` [Example 77, N-(((3S)-4-(cyclopentylcarbonyl)morpholin-3-yl)methyl)-4-(5-(trifluoromethyl)-1,2,4-oxadiazol-3-yl)benzamide], the inhibition at 1 µM in assay [1] was determined as 18%; in assay [2], 98%.

In the case of `O=C(NC[C@H]1COCCN1C(=O)C1CCCCC1)c1ccc(-c2noc(C(F)(F)F)n2)cc1` [Example 80, N-(((3S)-4-(cyclohexylcarbonyl)morpholin-3-yl)methyl)-4-(5-(trifluoromethyl)-1,2,4-oxadiazol-3-yl)benzamide], the inhibition at 1 µM in assay [1] was determined as 15%; in assay [2], 98%.

Take `Cn1nc2ccccc2c1C(=O)N1CCOC[C@@H]1CNC(=O)c1ccc(-c2noc(C(F)(F)F)n2)cc1` [Example 82, N-(((3S)-4-((2-methyl-2H-indazol-3-yl)carbonyl)morpholin-3-yl)methyl)-4-(5-(trifluoromethyl)-1,2,4-oxadiazol-3-yl)benzamide]: the inhibition at 1 µM in assay [1] was 60%; in assay [2] it was 101%.

On to `O=C(NC[C@H]1COCCN1C(=O)Cn1cnccc1=O)c1ccc(-c2noc(C(F)(F)F)n2)cc1` [Example 83, N-(((3S)-4-((6-oxopyrimidin-1(6H)-yl)acetyl)morpholin-3-yl)methyl)-4-(5-(trifluoromethyl)-1,2,4-oxadiazol-3-yl)benzamide], for which the inhibition at 1 µM in assay [1] turned out to be 4%; in assay [2] it was 15%.

Take `CC(C)n1nccc1C(=O)N1CCOC[C@@H]1CNC(=O)c1ccc(-c2noc(C(F)(F)F)n2)cc1` [Example 84, N-(((3S)-4-((1-isopropyl-1H-pyrazol-5-yl)carbonyl)morpholin-3-yl)methyl)-4-(5-(trifluoromethyl)-1,2,4-oxadiazol-3-yl)benzamide]: the inhibition at 1 µM in assay [1] was 53%; in assay [2] it was 98%.

Consider `Cn1cc2c(C(=O)N3CCOC[C@@H]3CNC(=O)c3ccc(-c4noc(C(F)(F)F)n4)cc3)cccc2n1` [Example 85, N-(((3S)-4-((2-methyl-2H-indazol-4-yl)carbonyl)morpholin-3-yl)methyl)-4-(5-(trifluoromethyl)-1,2,4-oxadiazol-3-yl)benzamide], for which the inhibition at 1 µM in assay [1] came out at 15%; in assay [2], 96%.
